The values below come from US5608095A, “Alkyl-4-silyl-phenols and esters thereof as antiatherosclerotic agents” (Hoechst Marion Roussel, Inc., priority 1996, dated 1997).

One test deals with ICAM-1. Kind of test: Cell surface ELISA for ICAM-1 in human umbilical vein endothelial cells (HUVEC), TNF-alpha induced. Type of test: cell-based. The following applies: 50 μM, average of two runs, numbers in parentheses represent negative values. The method, then: Cell Surface ELISA for VCAM-1/ICAM-1
Proliferating human umbilical vein endothelial cells (HUVEC) or human aortic smooth muscle cells (HASMC) from Clonetics (San Diego, Calif.) were plated onto 96-well plates in 100 μL medium per well at 20,000 cells per cm^2. The cultures were maintained in growth medium (EGM or SMGM2, Clonetics, San Diego, Calif.) for two days prior to addition of cytokines or drugs. Cytokines plus or minus compounds were added for 20 to 24 hours prior to analysis for adhesion molecule levels. Tumor necrosis factor (Genzyme, Cambridge, Mass.) was added to cultures at 500-1000 units/mL. Interleukin-4 (GIBCO-BRL, Gaithersburg, Md.) was added to cultures at 100-200 pg/mL. (Additions were made by transferring 100 [μL of cytokines plus compounds serially diluted on a separate 96-well plate into the plates containing cells. The medium on the cultures was not exchanged prior to addition of effectors). The culture medium was removed, and the monolayers were washed twice with Hanks buffered saline solution (HBSS) at room temperature. The primary antibody (anti-human VCAM-1 from Upstate Biotechnology, Inc., Lake Placid, N.Y. or anti-human ICAM-1 from Immunotech, Inc., Westbrook, Me.) was added to each well (1 μg/mL in HBSS plus 5% newborn calf serum, GIBCO-BRL, Gaithersburg, Md.) and incubated at 37° C. for 1 hr. The wells were washed twice with HBSS, then 100 μL of a 1/1000 dilution of goat anti-mouse IgG conjugated to horse radish peroxidase (BioRad, Hercules, Calif.) in HBSS plus 5% newborn calf serum was added to each well and incubated for 1 hr at 37° C. The wells were washed three times with HBSS, then 100 μL of TMB substrate (BioRad, Hercules, Calif.) was added to each well. The reaction was stopped after blue color developed by addition of 50 μL of 1N H2 SO4. Absorbance is measured at 450 nm with a plate reader. IC50 values were determined from curves of absorbance values obtained from serial dilutions of compounds (dissolved in dimethyl sulfoxide).
The IC50 value is defined as the drug concentration that inhibits the cytokine-induced adhesion molecule expression by 50%. Maximal values for adhesion molecule expression in cytokine-induced cultures was […] the basal level of adhesion molecule expression (minus cytokines) in the cultures to determine the level of induction. […] Each drug concentration was tested in quadruplicate wells. Single point tests of compounds at 50 μM were assayed as described for IC50 determinations, except that the data represent the level of inhibition without correction for basal expression. (Basal adhesion molecule expression was 10-20% of the total induced expression). Table 1 summarizes the ability of various compounds of this invention to inhibit VCAM-1 using human aortic smooth muscle cells (HASMC). In these experiments, the cells were coincubated with interleukin-4 and the compounds listed about 20 hr before assaying cell surface VCAM-1 levels. Each column represents a separate experiment.
In these experiments, the cells were coincubated with tumor necrosis factor-alpha along with the indicated compounds about 20 to 24 hr before assaying cell surface adhesion molecule expression.

Test [1] has as its system oxidation of serum lipids. Description: TBARS assay, serum of cholesterol-fed rabbits. Type of test: in vivo, female New Zealand White rabbits. The following applies: Oryctolagus cuniculus, po, read-out: TBARS, percent of control; for response vs control in vivo at 0.4 %: 168 h. The method, then: Five independent experiments were performed in the following manner. […] Female New Zealand White rabbits (Hazelton, ~2.0-2.3 kg) were fed 0.2% cholesterol enriched rabbit chow (Purina #5322) with or without 0.4% MDL compound (except, MDL 108,804 at 0.26% and MDL 103,491 repeated at 0.6%). The MDL compounds were solubilized in 100% ethanol. MDL 108,208 was not soluble in 100% ethanol, but it was soluble in diethyl ether:ethanol (3:2 by volume). The chow was sprayed with the MDL mixtures and allowed to dry overnight in a chemical fume hood. Control chow was sprayed with ethanol. Rabbits were fed 100 grams food per day for 7 days (0.6% MDL 103,491 were fed for 14 days); water was available ad libitum. On day 7, rabbits (fasted overnight) were bled (~2 mL) from marginal ear vein; 0.6% MDL 103,491 treated rabbits were tested on day 14. They were euthanized by carbon dioxide overdose. The total body and liver weights were recorded in grams. Food consumption was recorded as grams.cndot.day^-1 .cndot.rabbit^-1. Aliquots of fresh serum were used for clinical chemistries, lipoprotein cholesterol determination, thiobarbituric acid reactive substances (TBARS) and compound and metabolite concentrations in serum. Livers (~5 gram aliquots) were frozen at -20° C. for compound and metabolite concentration determination at a later time.
TBARS are a qualitative indication of the oxidation of lipids in a sample. In this assay the oxidation of serum lipids is initiated with CuSO4, resulting in the formation of aldehydes, such as malondialdehyde (MDA). Upon incubation with thiobarbituric acid, the absorbance of the aldehydes can be detected at 530-540 nm. TBARS values which are lower than control serum values indicate the relative ability of a compound to inhibit the oxidation. TBARS were measured as follows: 50 μL of serum were mixed with 50 μL of 0.9% saline and 400 μL of a 5 mM CuSO4 solution and incubated at 37° C. for 5 hr. The reactions were stopped by addition of 1.0 mL of 20% trichloroacetic acid. Then 1.0 mL of 0.67% thiobarbituric acid in 0.05N sodium hydroxide was added, mixed, and the samples incubated for 30 min at 90° C. Samples were centrifuged briefly to pellet undissolved material, and the supernatants were transferred to a 96-well microtiter plate. Absorbances were measured at 540 nm using a Biotek model EL311 microplate reader. The nmoles of MDA produced were calculated from a standard curve of 0 to 10 nmoles of MDA prepared from malonaldehyde bis(dimethylacetal). Serum samples from treated rabbits were compared to serum samples from control rabbits that received no MDL compound.

[2] abbreviates: rabbit serum, diet 0.4%, 7 days.

Like-named read-outs stand apart in the source and are kept apart here.

In the case of `CC(=O)Oc1ccc(OC[Si](C)(C)c2ccccc2)cc1C(C)(C)C` [MDL 105,443, 2-t-Butyl-4-[(dimethylphenylsilyl)methyloxy]phenol acetic acid ester], the ICAM-1 % inh. in the test on ICAM-1 turned out to be 73.0%. Besides, the response vs control in vivo at 0.4 % in test [1] (setting [2]) came out at 42%.

`CC(C)(C)c1cc(OC[Si](C)(C)c2ccc(C(F)(F)F)cc2)cc(C(C)(C)C)c1O` [MDL 105,975, 2,6-Di-t-butyl-4-[(dimethyl-4-trifluoromethylphenylsilyl)methyloxy]phenol]: the ICAM-1 % inh. in the test with ICAM-1 is 2.5%. In addition, the response vs control in vivo at 0.4 % in test [1] was 68%.

For the compound `CC(C)(C)c1cc(OC[Si](C)(c2ccccc2)c2ccccc2)cc(C(C)(C)C)c1O` [MDL 104,599, 2,6-Di-t-butyl-4-[(diphenylmethylsilyl)methloxy]phenol], in test [1] (setting [2]), the response vs control in vivo at 0.4 % was 79%.

Take `COc1ccc([Si](C)(C)COc2ccc(O)c(C(C)(C)C)c2)cc1` [MDL 106,834, 2-t-Butyl-4-[(dimethyl-p-methoxylphenylsilyl)methyloxy]phenol]: in test [1] (setting [2]), the response vs control in vivo at 0.4 % turned out to be 70%.

`CC(C)(C)c1cc(SC[Si](C)(C)c2ccccc2)cc(C(C)(C)C)c1OC(=O)CCC(=O)O` [MDL 103,141, 2,6-Di-t-butyl-4-[(dimethylphenylsilyl)methylthio]phenol sucinic acid ester]: in the test on ICAM-1, the ICAM-1 % inh. came out at 79.5%.

For `Cc1cc(OC[Si](C)(C)c2ccccc2)c(C)c(C)c1O` [MDL 105,314, 2,3,6-Trimethyl-4-[(dimethylphenylsdilyl)methloxy]phenol], in the test with ICAM-1, the ICAM-1 % inh. came to 75.5%.

For `CC(C)(C)c1cc(OC[Si](C)(C)c2ccccc2)ccc1O` [MDL 103,491, 2-t-Butyl-4-[(dimethylphenylsilyl)methyloxy]phenol], the ICAM-1 % inh. with ICAM-1 is listed as 80%. In addition, the response vs control in vivo at 0.4 % in test [1] (setting [2]) turned out to be 32%. The response vs control in vivo at 0.6 % in test [1] (336 h, rabbit serum, diet 0.6%, 14 days) was 18%.

In the case of `CC(C)(C)c1cc(OC[Si](C)(C)c2ccccc2)c(C(C)(C)C)cc1O` [MDL 104,962, 2,5-Di-t-butyl-4-[(dimethylphenylsilyl)methyloxy]phenol], in test [1] (setting [2]), the response vs control in vivo at 0.4 % was 19%.

`CC(C)(C)c1cc(OC[Si](C)(C)c2ccccc2)cc(C(C)(C)C)c1OC(=O)CCC(=O)O` [MDL 103,076, 2,6-Di-t-butyl-4-[(dimethylphenylsilyl)methyloxy]phenol succinic acid ester]: the ICAM-1 % inh. in the test on ICAM-1 was 76%.

Take `CN(C)c1ccc([Si](C)(C)COc2cc(C(C)(C)C)c(O)c(C(C)(C)C)c2)cc1` [MDL 104,556, 2,6-Di-t-butyl-4-[(4-N,N-dimethylaminophenyldimethylsilyl)methyloxy]phenol]: in the test with ICAM-1, the ICAM-1 % inh. turned out to be 1.5%. Besides, in test [1] (setting [2]), the response vs control in vivo at 0.4 % was found to be 70%.
